Data published in ChEMBL document CHEMBL1142415, “5-tert-butyl-N-pyrazol-4-yl-4,5,6,7-tetrahydrobenzo[d]isoxazole-3-carboxamide derivatives as novel potent inhibitors of Mycobacterium tuberculosis pantothenate synthetase: initiating a quest for new antitubercular drugs” (J Med Chem, 2008).
pIC50: −log10 of the molar value.

Key:
[1] = biological target: T1, Pantothenate synthetase (Mycobacterium tuberculosis) (UniProt P9WIL5); assay: Inhibition of Mycobacterium tuberculosis pantothenate synthetase at 100 uM
T1 sequence (whole entry): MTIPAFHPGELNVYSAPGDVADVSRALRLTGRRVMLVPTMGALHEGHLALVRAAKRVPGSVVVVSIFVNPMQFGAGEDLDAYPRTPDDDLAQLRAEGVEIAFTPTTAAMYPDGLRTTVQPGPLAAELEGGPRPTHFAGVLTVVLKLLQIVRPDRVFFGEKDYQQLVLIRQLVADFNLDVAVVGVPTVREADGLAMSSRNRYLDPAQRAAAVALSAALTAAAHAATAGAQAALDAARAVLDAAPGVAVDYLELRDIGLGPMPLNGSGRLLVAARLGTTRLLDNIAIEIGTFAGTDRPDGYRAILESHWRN

Pantothenate synthetase = biological target: T2, Pantothenate synthetase (Mycobacterium tuberculosis, UniProt P9WIL5); assay: Inhibition of Mycobacterium tuberculosis pantothenate synthetase
T2 sequence (P9WIL5 whole entry): T1 sequence (whole entry)

[2] = system: Mycobacterium tuberculosis; assay: Antibacterial activity against Mycobacterium tuberculosis at 128 uM by MABA assay; format: functional
[3] = system: Mycobacterium tuberculosis; assay: Antibacterial activity against Mycobacterium tuberculosis at 128 uM by LORA assay; format: functional

CC(C)(C)C1CCc2onc(C(=O)Nc3cnn(Cc4ccccc4)c3)c2C1 (centres undefined)
inhibition [1]: 100% | pIC50 (Pantothenate synthetase): 7.01 | inhibition at 128 µM [2]: 84% | inhibition at 128 µM [3]: 62%

CC(C)(C)C1CCc2onc(C(=O)Nc3cnn(Cc4ccc(C(=O)O)cc4)c3)c2C1 (centres undefined)
inhibition [1]: 99% | pIC50 (Pantothenate synthetase): 6.34 | inhibition at 128 µM [2]: 41% | inhibition at 128 µM [3]: 2%

CC(C)(C)C1CCc2onc(C(=O)Nc3cnn(Cc4ccc(F)cc4F)c3)c2C1 (centres undefined)
inhibition [1]: 100% | pIC50 (Pantothenate synthetase): 6.89 | inhibition at 128 µM [2]: 56% | inhibition at 128 µM [3]: 47%

CC(C)(C)C1CCc2onc(C(=O)Nc3cn[nH]c3)c2C1 (centres undefined)
inhibition [1]: 43% | pIC50 (Pantothenate synthetase): 4.21 | inhibition at 128 µM [2]: 60% | inhibition at 128 µM [3]: 4%

CC(C)(C)C1CCc2onc(C(=O)Nc3cnn(Cc4ccc(F)cc4)c3)c2C1 (centres undefined)
inhibition [1]: 98% | pIC50 (Pantothenate synthetase): 6.82 | inhibition at 128 µM [2]: 0% | inhibition at 128 µM [3]: 0%

CC(C)(C)C1CCc2onc(C(=O)Nc3cnn(Cc4ccccc4Br)c3)c2C1 (centres undefined)
inhibition [1]: 94% | pIC50 (Pantothenate synthetase): 6.85 | inhibition at 128 µM [2]: 73% | inhibition at 128 µM [3]: 24%

CC(C)(C)C1CCc2onc(C(=O)Nc3cnn(Cc4ccccc4I)c3)c2C1 (centres undefined)
inhibition [1]: 84% | pIC50 (Pantothenate synthetase): 6.80 | inhibition at 128 µM [2]: 70% | inhibition at 128 µM [3]: 12%

O=C(Nc1cnn(Cc2ccc(Cl)cc2Cl)c1)c1noc2c1CCCC2
inhibition [1]: 18% | inhibition at 128 µM [2]: 70% | inhibition at 128 µM [3]: 53%

Cc1ccccc1Cn1cc(NC(=O)c2noc3c2CC(C(C)(C)C)CC3)cn1 (centres undefined)
inhibition [1]: 89% | pIC50 (Pantothenate synthetase): 6.92 | inhibition at 128 µM [2]: 46% | inhibition at 128 µM [3]: 15%

CC(C)(C)OC(=O)c1ccc(Cn2cc(NC(=O)c3noc4c3CC(C(C)(C)C)CC4)cn2)cc1 (centres undefined)
inhibition [1]: 79% | pIC50 (Pantothenate synthetase): 6.60

CC(C)(C)C1CCc2onc(C(=O)O)c2C1 (centres undefined)
inhibition [1]: 12% | inhibition at 128 µM [2]: 5% | inhibition at 128 µM [3]: 11%

CC(C)(C)C1CCc2onc(C(=O)Nc3cnn(Cc4ccc(C(=O)NCc5ccccc5)cc4)c3)c2C1 (centres undefined)
inhibition [1]: 82% | pIC50 (Pantothenate synthetase): 6.68 | inhibition at 128 µM [2]: 54% | inhibition at 128 µM [3]: 46%

CC(C)(C)C1CCc2onc(C(=O)Nc3cnn(C(=O)c4c(Cl)cc(Cl)cc4Cl)c3)c2C1 (centres undefined)
inhibition [1]: 17% | inhibition at 128 µM [2]: 34% | inhibition at 128 µM [3]: 26%

CC(C)(C)C1CCc2onc(C(=O)Nc3cnn(Cc4ccc(C(=O)NCCc5ccccc5)cc4)c3)c2C1 (centres undefined)
inhibition [1]: 78% | pIC50 (Pantothenate synthetase): 6.85 | inhibition at 128 µM [2]: 19% | inhibition at 128 µM [3]: 11%

CC(C)(C)C1CCc2onc(C(=O)Nc3cnn(Cc4ccc(Cl)cc4)c3)c2C1 (centres undefined)
inhibition [1]: 98% | pIC50 (Pantothenate synthetase): 6.85

CC(C)(C)C1CCc2onc(C(=O)Nc3cnn(Cc4ccc5ccccc5c4)c3)c2C1 (centres undefined)
inhibition [1]: 97% | pIC50 (Pantothenate synthetase): 7.05 | inhibition at 128 µM [2]: 43%

COC(=O)c1ccc(Cn2cc(NC(=O)c3noc4c3CC(C(C)(C)C)CC4)cn2)cc1 (centres undefined)
inhibition [1]: 100% | pIC50 (Pantothenate synthetase): 6.80 | inhibition at 128 µM [2]: 48% | inhibition at 128 µM [3]: 0%

COc1ccc(Cc2noc(NC(=O)c3noc4c3CC(C(C)(C)C)CC4)c2C(N)=O)cc1 (centres undefined)
inhibition [1]: 79% | pIC50 (Pantothenate synthetase): 5.15 | inhibition at 128 µM [2]: 14% | inhibition at 128 µM [3]: 14%
